Test results from paper PMC8242268, “Transcriptomic and Proteomic Analysis of Mannitol-metabolism-associated Genes in Saccharina japonica” (Genomics, Proteomics & Bioinformatics, 2020).

Assays:
[1] = biological target: T1, SjaM1PDH2 (Saccharina japonica, UniProt A0A2Z4BWZ7); assay: F6P reduction kinetics, Lineweaver-Burk; format: biochemical; conditions: apparent; co-substrate NADH
T1 construct: codon-optimized synthetic gene, pET32a (EcoRI/NotI), E. coli BL21(DE3), His-resin purified
T1 sequence (A0A2Z4BWZ7 1-355): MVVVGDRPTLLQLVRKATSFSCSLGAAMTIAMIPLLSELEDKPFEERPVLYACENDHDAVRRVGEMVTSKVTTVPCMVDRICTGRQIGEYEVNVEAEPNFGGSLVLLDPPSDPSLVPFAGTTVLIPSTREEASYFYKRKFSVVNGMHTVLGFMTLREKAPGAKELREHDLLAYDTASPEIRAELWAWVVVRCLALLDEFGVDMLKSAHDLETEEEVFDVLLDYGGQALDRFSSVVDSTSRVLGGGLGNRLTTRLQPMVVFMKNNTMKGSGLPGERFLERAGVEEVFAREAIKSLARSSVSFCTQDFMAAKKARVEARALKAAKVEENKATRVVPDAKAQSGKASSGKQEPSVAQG

[2] = biological target: T2, SjaM1Pase2 (Saccharina japonica, UniProt A0A2Z4BXC0); assay: M1P phosphatase kinetics, Lineweaver-Burk; format: biochemical; conditions: apparent; 100 mM Tris-HCl buffer
T2 construct: codon-optimized synthetic gene, pGEX-6p-1 (EcoRI/NotI), E. coli BL21(DE3), GST-resin purified
T2 sequence (A0A2Z4BXC0 1-327): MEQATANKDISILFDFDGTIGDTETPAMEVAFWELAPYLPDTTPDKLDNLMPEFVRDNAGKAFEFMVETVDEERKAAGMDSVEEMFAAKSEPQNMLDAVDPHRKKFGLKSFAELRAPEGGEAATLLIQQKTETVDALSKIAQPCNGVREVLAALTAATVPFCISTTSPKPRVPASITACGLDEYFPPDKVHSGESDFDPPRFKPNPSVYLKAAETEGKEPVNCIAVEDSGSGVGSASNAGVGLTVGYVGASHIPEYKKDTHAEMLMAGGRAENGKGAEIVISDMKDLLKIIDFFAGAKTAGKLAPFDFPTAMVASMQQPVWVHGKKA

Structure (SMILES): O=P(O)(O)OC[C@H]1OC(O)(CO)[C@@H](O)[C@@H]1O (some centres unmarked) [F6P]
- Km [1]: 2.02 mM

Structure (SMILES): O=P(O)(O)OC[C@@H](O)[C@@H](O)[C@H](O)[C@H](O)CO [M1P]
- Km [2]: 20 µM
